In US9924716B2, “Molecules having pesticidal utility, and intermediates, compositions, and processes, related thereto” (Dow AgroSciences LLC, priority 2016, dated 2018):

Assays:
[1] = tested on: Beet Armyworm (Spodoptera exigua, LAPHEG) second instar larvae; assay: Bioassay on Beet Armyworm (BAW), 128-well diet tray assay; assay type: in vivo; conditions: for mortality at 0.05 µg/cm2: 0.05 μg/cm^2 on artificial diet; for mortality at 0.05 µg/cm2 / mortality at 0.5 µg/cm2 / mortality at 5 µg/cm2: read-out: Percent control (or mortality) BAW; for mortality at 0.5 µg/cm2: 0.5 μg/cm^2 on artificial diet; for mortality at 5 µg/cm2: 5 μg/cm^2 on artificial diet; for pest or weed control at 50 µg/cm2: Beet Armyworm, Table ABC Biological Results, read-out: BAW rating
Description: (§1) Certain molecules disclosed in this document were tested against BAW, CEW, and CL using procedures described in the following examples. In the reporting of the results, the “BAW, CEW, & CL Rating Table” was used (See Table Section).
Bioassays on BAW were conducted using a 128-well diet tray assay. one to five second instar BAW larvae were placed in each well (3 mL) of the diet tray that had been previously filled with 1 mL of artificial diet to which 50 μg/cm^2 of the test molecule (dissolved in 50 μL of 90:10 acetone-water mixture) had been applied (to each of eight wells) and then allowed to dry. Trays were covered with a clear self-adhesive cover and held at 25° C., 14:10 light-dark for five to seven days. Percent mortality was recorded for the larvae in each well; activity in the eight wells was then averaged. The results are indicated in the table entitled “Table ABC: Biological Results” (See Table Section).
(§2) Bioassays on BAW and CL were conducted according to the procedures outlined in Example A: Bioassays on Beet Armyworm (“BAW”) and Cabbage Looper (“CL”) using the indicated concentrations.

[2] = tested on: Cabbage Looper (Trichoplusia ni, TRIPNI) second instar larvae; assay: Bioassay on Cabbage Looper (CL), 128-well diet tray assay; assay type: in vivo; conditions: for mortality at 0.05 µg/cm2: 0.05 μg/cm^2 on artificial diet; for mortality at 0.05 µg/cm2 / mortality at 0.5 µg/cm2 / mortality at 5 µg/cm2: read-out: Percent control (or mortality) CL; for mortality at 0.5 µg/cm2: 0.5 μg/cm^2 on artificial diet; for mortality at 5 µg/cm2: 5 μg/cm^2 on artificial diet; for pest or weed control at 50 µg/cm2: Cabbage Looper, Table ABC Biological Results, read-out: CL rating
Description: as §1
Bioassays on CL were conducted using a 128-well diet tray assay. one to five second instar CL larvae were placed in each well (3 mL) of the diet tray that had been previously filled with 1 mL of artificial diet to which 50 μg/cm^2 of the test molecule (dissolved in 50 μL of 90:10 acetone-water mixture) had been applied (to each of eight wells) and then allowed to dry. Trays were covered with a clear self-adhesive cover and held at 25° C., 14:10 light-dark for five to seven days. Percent mortality was recorded for the larvae in each well; activity in the eight wells was then averaged. The results are indicated in the table entitled “Table ABC: Biological Results” (See Table Section).
as §2

## C[C@H](NC(=O)CCC(F)(F)F)NC(=O)c1ccc(/C(F)=C/C(c2cc(Cl)c(Cl)c(Cl)c2)C(F)(F)F)cc1C(F)(F)F (stereo partly drawn) [F1, 4-((Z)-1,4,4,4-tetrafluoro-3-(3,4,5-trichlorophenyl)but-1-en-1-yl)-N—((R)-1-(4,4,4-trifluorobutanamido)ethyl)-2-(trifluoromethyl)benzamide]
[1]
  mortality at 0.05 µg/cm2: 100%
  mortality at 0.5 µg/cm2: 100%
  mortality at 5 µg/cm2: 100%
  pest or weed control at 50 µg/cm2: 50 to 100%
[2]
  mortality at 0.05 µg/cm2: 100%
  mortality at 0.5 µg/cm2: 100%
  mortality at 5 µg/cm2: 100%
  pest or weed control at 50 µg/cm2: 50 to 100%

## Cc1cc(/C(F)=C/C(c2cc(Cl)c(Cl)c(Cl)c2)C(F)(F)F)ccc1C(=O)N[C@H](C)NC(=O)CCC(F)(F)F (stereo partly drawn) [F2, 2-Methyl-4-((Z)-1,4,4,4-tetrafluoro-3-(3,4,5-trichlorophenyl)but-1-en-1-yl)-N—((R)-1-(4,4,4-trifluorobutanamido)ethyl)benzamide]
[1]
  mortality at 0.05 µg/cm2: 100%
  mortality at 0.5 µg/cm2: 100%
  mortality at 5 µg/cm2: 100%
  pest or weed control at 50 µg/cm2: 50 to 100%
[2]
  mortality at 0.05 µg/cm2: 100%
  mortality at 0.5 µg/cm2: 100%
  mortality at 5 µg/cm2: 100%
  pest or weed control at 50 µg/cm2: 50 to 100%

## C[C@H](NC(=O)CCC(F)(F)F)NC(=O)c1ccc(/C(F)=C/C(c2cc(Cl)c(Cl)c(Cl)c2)C(F)(F)F)cc1Br (stereo partly drawn) [F3, 2-Bromo-4-((Z)-1,4,4,4-tetrafluoro-3-(3,4,5-trichlorophenyl)but-1-en-1-yl)-N—((R)-1-(4,4,4-trifluorobutanamido)ethyl)benzamide]
[1]
  mortality at 0.05 µg/cm2: 100%
  mortality at 0.5 µg/cm2: 100%
  mortality at 5 µg/cm2: 100%
  pest or weed control at 50 µg/cm2: 50 to 100%
[2]
  mortality at 0.05 µg/cm2: 100%
  mortality at 0.5 µg/cm2: 100%
  mortality at 5 µg/cm2: 100%
  pest or weed control at 50 µg/cm2: 50 to 100%

## C[C@H](NC(=O)CC(F)(F)F)NC(=O)c1ccc(/C(F)=C/C(c2cc(Cl)c(Cl)c(Cl)c2)C(F)(F)F)cc1Br (stereo partly drawn) [F4, 2-Bromo-4-((Z)-1,4,4,4-tetrafluoro-3-(3,4,5-trichlorophenyl)but-1-en-1-yl)-N—((R)-1-(3,3,3-trifluoropropanamido)ethyl)benzamide]
[1]
  mortality at 0.05 µg/cm2: 100%
  mortality at 0.5 µg/cm2: 100%
  mortality at 5 µg/cm2: 100%
  pest or weed control at 50 µg/cm2: 50 to 100%
[2]
  mortality at 0.05 µg/cm2: 100%
  mortality at 0.5 µg/cm2: 100%
  mortality at 5 µg/cm2: 100%
  pest or weed control at 50 µg/cm2: 50 to 100%

## C[C@H](NC(=O)CC(F)(F)F)NC(=O)c1ccc(/C(F)=C/C(c2cc(Cl)c(Cl)c(Cl)c2)C(F)(F)F)cc1C(F)(F)F (stereo partly drawn) [F5, 4-((Z)-1,4,4,4-Tetrafluoro-3-(3,4,5-trichlorophenyl)but-1-en-1-yl)-2-(trifluoromethyl)-N—((R)-1-(3,3,3-trifluoropropanamido)ethyl)benzamide]
[1]
  mortality at 0.05 µg/cm2: 100%
  mortality at 0.5 µg/cm2: 100%
  mortality at 5 µg/cm2: 100%
  pest or weed control at 50 µg/cm2: 50 to 100%
[2]
  mortality at 0.05 µg/cm2: 100%
  mortality at 0.5 µg/cm2: 100%
  mortality at 5 µg/cm2: 100%
  pest or weed control at 50 µg/cm2: 50 to 100%

## Cc1cc(/C(F)=C/C(c2cc(Cl)c(Cl)c(Cl)c2)C(C)(F)F)ccc1C(=O)N[C@H](C)NC(=O)CC(F)(F)F (stereo partly drawn) [F6, 2-Methyl-4-((Z)-1,4,4-trifluoro-3-(3,4,5-trichlorophenyl)pent-1-en-1-yl)-N—((R)-1-(3,3,3-trifluoropropanamido)ethyl)benzamide]
[1]
  pest or weed control at 50 µg/cm2: 50 to 100%
[2]
  pest or weed control at 50 µg/cm2: 50 to 100%

## C[C@H](NC(=O)CC(F)(F)F)NC(=O)c1ccc(/C(F)=C/C(c2cc(Cl)c(Cl)c(Cl)c2)C(F)(F)F)cc1Cl (stereo partly drawn) [F7, 2-Chloro-4-((Z)-1,4,4,4-tetrafluoro-3-(3,4,5-trichlorophenyl)but-1-en-1-yl)-N—((R)-1-(3,3,3-trifluoropropanamido)ethyl)benzamide]
[1]
  mortality at 0.05 µg/cm2: 79%
  mortality at 0.5 µg/cm2: 100%
  mortality at 5 µg/cm2: 100%
  pest or weed control at 50 µg/cm2: 50 to 100%
[2]
  mortality at 0.05 µg/cm2: 100%
  mortality at 0.5 µg/cm2: 100%
  mortality at 5 µg/cm2: 100%
  pest or weed control at 50 µg/cm2: 50 to 100%

## C[C@H](NC(=O)CC(F)(F)F)NC(=O)c1ccc(/C(F)=C/C(c2cc(Cl)c(Cl)c(Cl)c2)C(C)(F)F)cc1C(F)(F)F (stereo partly drawn) [F8, 4-((Z)-1,4,4-Trifluoro-3-(3,4,5-trichlorophenyl)pent-1-en-1-yl)-2-(trifluoromethyl)-N—((R)-1-(3,3,3-trifluoropropanamido)ethyl)benzamide]
[1]
  pest or weed control at 50 µg/cm2: 50 to 100%
[2]
  pest or weed control at 50 µg/cm2: 50 to 100%

## C[C@H](NC(=O)CCC(F)(F)F)NC(=O)c1ccc(/C(F)=C/C(c2cc(Cl)c(Cl)c(Cl)c2)C(F)(F)F)cc1Cl (stereo partly drawn) [F9, 2-Chloro-4-((Z)-1,4,4,4-tetrafluoro-3-(3,4,5-trichlorophenyl)but-1-en-1-yl)-N—((R)-1-(4,4,4-trifluorobutanamido)ethyl)benzamide]
[1]
  mortality at 0.05 µg/cm2: 100%
  mortality at 0.5 µg/cm2: 100%
  mortality at 5 µg/cm2: 100%
  pest or weed control at 50 µg/cm2: 50 to 100%
[2]
  mortality at 0.05 µg/cm2: 100%
  mortality at 0.5 µg/cm2: 100%
  mortality at 5 µg/cm2: 100%
  pest or weed control at 50 µg/cm2: 50 to 100%

## C[C@H](NC(=O)CCC(F)(F)F)NC(=O)c1ccc(/C(F)=C/C(c2cc(Cl)c(Cl)c(Cl)c2)C(C)(F)F)cc1C(F)(F)F (stereo partly drawn) [F10, 4-((Z)-1,4,4-Trifluoro-3-(3,4,5-trichlorophenyl)pent-1-en-1-yl)-N—((R)-1-(4,4,4-trifluorobutanamido)ethyl)-2-(trifluoromethyl)benzamide]
[1]
  pest or weed control at 50 µg/cm2: 50 to 100%
[2]
  pest or weed control at 50 µg/cm2: 50 to 100%

## CCC(F)(F)C(/C=C(\F)c1ccc(C(=O)N[C@H](C)NC(=O)CC(F)(F)F)c(C(F)(F)F)c1)c1cc(Cl)c(Cl)c(Cl)c1 (stereo partly drawn) [F20, 4-((Z)-1,4,4-Trifluoro-3-(3,4,5-trichlorophenyl)hex-1-en-1-yl)-2-(trifluoromethyl)-N—((R)-1-(3,3,3-trifluoropropanamido)ethyl)benzamide]
[1]
  pest or weed control at 50 µg/cm2: 50 to 100%
[2]
  pest or weed control at 50 µg/cm2: 50 to 100%

## CCC(F)(F)C(/C=C(\F)c1ccc(C(=O)N[C@H](C)NC(=O)CCC(F)(F)F)c(C(F)(F)F)c1)c1cc(Cl)c(Cl)c(Cl)c1 (stereo partly drawn) [F21, 4-((Z)-1,4,4-Trifluoro-3-(3,4,5-trichlorophenyl)hex-1-en-1-yl)-N—((R)-1-(4,4,4-trifluorobutanamido)ethyl)-2-(trifluoromethyl)benzamide]
[1]
  pest or weed control at 50 µg/cm2: 50 to 100%
[2]
  pest or weed control at 50 µg/cm2: 50 to 100%

## C[C@@H](NC(=O)c1ccc(/C(F)=C/C(c2cc(Cl)c(Cl)c(Cl)c2)C(F)(F)F)cc1C(F)(F)F)NC(=O)C1CC1 (stereo partly drawn) [F27, N—((R)-1-(cyclopropanecarboxamido)ethyl)-4-((Z)-1,4,4,4-tetrafluoro-3-(3,4,5-trichlorophenyl)but-1-en-1-yl)-2-(trifluoromethyl)benzamide]
[1]
  pest or weed control at 50 µg/cm2: 50 to 100%
[2]
  pest or weed control at 50 µg/cm2: 50 to 100%

## C[C@@H](NC(=O)c1ccc(/C(F)=C/C(c2cc(Cl)c(Cl)c(Cl)c2)C(F)(F)F)cc1C(F)(F)F)NS(=O)(=O)CC(F)(F)F (stereo partly drawn) [F28, 4-((Z)-1,4,4,4-tetrafluoro-3-(3,4,5-trichlorophenyl)but-1-en-1-yl)-N—((S)-1-(2,2,2-trifluoroethylsulfonamido)ethyl)-2-(trifluoromethyl)benzamide]
[1]
  pest or weed control at 50 µg/cm2: 50 to 100%
[2]
  pest or weed control at 50 µg/cm2: 50 to 100%

## C[C@H](NC(=O)NC1CC1)NC(=O)c1ccc(/C(F)=C/C(c2cc(Cl)c(Cl)c(Cl)c2)C(F)(F)F)cc1C(F)(F)F (stereo partly drawn) [F29, N—((S)-1-(3-cyclopropylureido)ethyl)-4-((Z)-1,4,4,4-tetrafluoro-3-(3,4,5-trichlorophenyl)but-1-en-1-yl)-2-(trifluoromethyl)benzamide]
[1]
  pest or weed control at 50 µg/cm2: 50 to 100%
[2]
  pest or weed control at 50 µg/cm2: 50 to 100%

## Cc1cc(/C(F)=C/C(c2cc(Cl)c(Cl)c(Cl)c2)C(F)(F)F)ccc1C(=O)N[C@H](C)NC(=O)CC(F)(F)F (stereo partly drawn) [F33, 2-Methyl-4-((Z)-1,4,4,4-tetrafluoro-3-(3,4,5-trichlorophenyl)but-1-en-1-yl)-N—((R)-1-(3,3,3-trifluoropropanamido)ethyl)benzamide]
[1]
  mortality at 0.05 µg/cm2: 88%
  mortality at 0.5 µg/cm2: 100%
  mortality at 5 µg/cm2: 100%
  pest or weed control at 50 µg/cm2: 50 to 100%
[2]
  mortality at 0.05 µg/cm2: 100%
  mortality at 0.5 µg/cm2: 100%
  mortality at 5 µg/cm2: 100%
  pest or weed control at 50 µg/cm2: 50 to 100%

## CCC(=O)N[C@@H](C)NC(=O)c1ccc(/C(F)=C/C(c2cc(Cl)c(Cl)c(Cl)c2)C(F)(F)F)cc1C(F)(F)F (stereo partly drawn) [F34, N—((R)-1-propionamidoethyl)-4-((Z)-1,4,4,4-tetrafluoro-3-(3,4,5-trichlorophenyl)but-1-en-1-yl)-2-(trifluoromethyl)benzamide]
[1]
  pest or weed control at 50 µg/cm2: 50 to 100%
[2]
  pest or weed control at 50 µg/cm2: 50 to 100%
